We go through 7 compounds from PubChem BioAssay (NCI).

Test systems include OVCAR-4 ovarian; SK-MEL-28 melanoma; UO-31 renal; NCI/ADR-RES ovarian; ACHN renal; PC-3 prostate; MDA-MB-231 breast; A498 renal.
Test in all cases: DTP human tumour cell line panel, 48 h

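In this assay, cells in 96-well plates receive the compound at five concentrations for 48 hours. Endpoints are linearly interpolated between the surrounding concentrations. GI50: concentration for 50% inhibition of growth. Definition used: TGI = concentration required for complete inhibition of growth.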

Usually GI50 stands for the concentration that inhibits growth by half. Broadly, the TGI is the concentration at which net growth stops. High values mean lower sensitivity of the cells, low ones greater sensitivity of the cells. Regarding `O=C(Nc1ccncc1)C(=O)c1cn(Cc2ccc(Cl)cc2)c2ccccc12`, the GI50 in the assay with OVCAR-4 ovarian was 0.106 µM; in the assay on SK-MEL-28 melanoma, 0.0711 µM; in the assay with UO-31 renal, 0.0788 µM; in the assay with NCI/ADR-RES ovarian, 0.0317 µM; with ACHN renal it was 0.082 µM; in the assay on PC-3 prostate, 0.0419 µM. For the same compound, the concentration for 50% growth inhibition (GI50) with MDA-MB-231 breast was 0.179 µM; in the assay with A498 renal it was 0.544 µM. Also, the TGI with OVCAR-4 ovarian, in the assay on SK-MEL-28 melanoma, with UO-31 renal, with NCI/ADR-RES ovarian, in the assay on ACHN renal and with PC-3 prostate was above 100 µM in each case. Besides, the TGI in the assay on MDA-MB-231 breast and in the assay with A498 renal was above 100 µM each time.
Take `c1csc(-c2cn3nc(-c4c[nH]c5ccccc45)sc3n2)c1`: the GI50 is 4.42 µM in the assay on OVCAR-4 ovarian; 4.74 µM in the assay with SK-MEL-28 melanoma; 1.71 µM in the assay with UO-31 renal; 0.561 µM in the assay on NCI/ADR-RES ovarian; 3.23 µM in the assay with ACHN renal; 2.07 µM in the assay on PC-3 prostate. Besides, the values for the GI50 in the assay with MDA-MB-231 breast and with A498 renal were 1.08 µM and 5.97 µM, respectively. The TGI with OVCAR-4 ovarian is above 100 µM; with SK-MEL-28 melanoma it was 44 µM; with UO-31 renal, above 100 µM; with NCI/ADR-RES ovarian it was above 100 µM; with ACHN renal, 52.5 µM; in the assay on PC-3 prostate, above 100 µM. Also, the concentration for total growth inhibition (TGI) with MDA-MB-231 breast came to 7.88 µM; in the assay with A498 renal, 23.6 µM.
For `CC1OC(n2c3ccccc3c3c4c(c5c6ccccc6[nH]c5c32)C(=O)N(CCN[C@@H]2CCC[C@H]2N)C4=O)CC(O)C1O` (some centres not stated), the GI50 with OVCAR-4 ovarian was 1.72 µM; with SK-MEL-28 melanoma, 2.65 µM; with UO-31 renal it was 6.45 µM; with NCI/ADR-RES ovarian, above 50 µM; in the assay with ACHN renal, 2.97 µM; with PC-3 prostate, 1.55 µM. For the same compound, the GI50 was 1.88 µM in the assay with MDA-MB-231 breast and 1.93 µM with A498 renal. For the same compound, the concentration for total growth inhibition (TGI) is 7.06 µM in the assay on OVCAR-4 ovarian; 9.59 µM with SK-MEL-28 melanoma; 15 µM in the assay with UO-31 renal; above 50 µM with NCI/ADR-RES ovarian; 10.5 µM with ACHN renal; 6.13 µM with PC-3 prostate. Also, the TGI is 8.16 µM with MDA-MB-231 breast and 8.24 µM in the assay on A498 renal.
On to `Cc1ccc(C(CC(=O)c2ccccc2)C2C(=O)NC(=O)NC2=O)cc1` (configuration not stated), for which the GI50 in the assay with OVCAR-4 ovarian, in the assay with SK-MEL-28 melanoma, in the assay with UO-31 renal, in the assay with NCI/ADR-RES ovarian, in the assay with ACHN renal and in the assay on PC-3 prostate was above 100 µM in each case. Further, the GI50 in the assay with MDA-MB-231 breast and in the assay with A498 renal was above 100 µM in each case. Besides, the TGI in the assay with OVCAR-4 ovarian, with SK-MEL-28 melanoma, with UO-31 renal, in the assay on NCI/ADR-RES ovarian, with ACHN renal and with PC-3 prostate was above 100 µM in each case. For the same compound, the concentration for total growth inhibition (TGI) in the assay on MDA-MB-231 breast and in the assay on A498 renal was above 100 µM in each case.
For the compound `COc1ccc(-c2nc(-c3ccccc3)c(-c3ccccc3)[nH]2)cc1OC1CCCC1`, the GI50 in the assay on OVCAR-4 ovarian, in the assay with SK-MEL-28 melanoma, in the assay with UO-31 renal, in the assay with NCI/ADR-RES ovarian, in the assay on ACHN renal and in the assay with PC-3 prostate was above 100 µM each time. Moreover, the GI50 with MDA-MB-231 breast was 15.5 µM; in the assay on A498 renal it was above 100 µM. Besides, the concentration for total growth inhibition (TGI) with OVCAR-4 ovarian, in the assay with SK-MEL-28 melanoma, in the assay with UO-31 renal, in the assay with NCI/ADR-RES ovarian, in the assay on ACHN renal and with PC-3 prostate was above 100 µM throughout. In addition, the TGI in the assay on MDA-MB-231 breast and in the assay on A498 renal was above 100 µM throughout.
As for `O=S(=O)(Nc1ccc(Br)c(Cl)c1)c1ccc(-c2cnc(C3CC3)o2)cc1`, the GI50 in the assay with OVCAR-4 ovarian was 2.67 µM; in the assay on SK-MEL-28 melanoma, 4.35 µM; in the assay with UO-31 renal, 1.11 µM; with NCI/ADR-RES ovarian, 0.43 µM; in the assay with ACHN renal, 0.562 µM; in the assay with PC-3 prostate, 0.493 µM. Further, the GI50 in the assay with MDA-MB-231 breast was 1.91 µM; in the assay on A498 renal it was 0.189 µM. The TGI is 21.9 µM in the assay on OVCAR-4 ovarian; 22 µM with SK-MEL-28 melanoma; 13.6 µM in the assay on UO-31 renal; 6.86 µM with NCI/ADR-RES ovarian; 18.2 µM in the assay with ACHN renal; 14.8 µM with PC-3 prostate. Moreover, the total growth inhibition concentration (TGI) in the assay on MDA-MB-231 breast turned out to be 16.4 µM; in the assay with A498 renal it was 0.845 µM.
In the case of `COc1ccc(-c2nc(/C=N/Nc3cc(C)nc4ccc(Cl)cc34)c(C)o2)cc1`, the GI50 is 1.53 µM in the assay with OVCAR-4 ovarian; 1.8 µM in the assay on SK-MEL-28 melanoma; 1.6 µM in the assay with UO-31 renal; 1.97 µM in the assay with NCI/ADR-RES ovarian; 1.81 µM in the assay with ACHN renal; 1.66 µM in the assay on PC-3 prostate. Besides, the GI50 in the assay with MDA-MB-231 breast was 2.03 µM; with A498 renal it was 3.13 µM. Further, the TGI is 2.9 µM with OVCAR-4 ovarian; 3.24 µM in the assay on SK-MEL-28 melanoma; 3 µM in the assay with UO-31 renal; 3.95 µM in the assay on NCI/ADR-RES ovarian; 3.2 µM in the assay with ACHN renal; 3.17 µM in the assay with PC-3 prostate. The figures for the TGI in the assay with MDA-MB-231 breast and in the assay with A498 renal were 3.84 µM and 15.2 µM, respectively.
